Counter-ions that a name gives are not always drawn. Like-named read-outs stand apart in the source and are kept apart here.
Tests used:
Type in all cases: in vivo, Danio rerio
[1] = tested on: 3-dpf Zebrafish Embryos Challenged with LPS (P. aeruginosa 60 μg/mL); settings: P. aeruginosa LPS 60 μg/mL, compound 10 μM; for 3 dpf Embryos Percent Rescue (Mort + Tail Edema): initial 3-dpf screen shown for reference; for Percent Rescue (Mort + Tail Edema): 3-dpf embryos, n=16; for Percent Rescue (Mort + Tail Edema) / rescue of tail edema and mortality (sepsis rescue rate) at 3-dpf: 24 hours
Description: Healthy, normally developing embryos collected from the adult AB zebrafish spawning events were treated with 75 μM of 1-phenyl 2-thiourea (PTU) in EM prior to 24 hours post fertilization (hpf) to block pigmentation formation (Karlsson et al, 2001). These embryos were then placed into an incubator at 28.5° C. until they reached 3-dpf. Embryos were then removed from the incubator and plated individually into the wells of 96 well plates containing 50 μL of EM.
A super stock of 120 μg/mL of P. aeruginosa LPS was made up in EM in a glass container. This stock was then used to make sub stocks of 120 μg/mL P. aeruginosa LPS (positive control) and 120 μg/mL P. aeruginosa LPS containing 20 μM of test drug in glass scintillation vials. Immediately after the sub stocks were made, the wells were dosed with either 50 μL of 120 μg/mL of P. aeruginosa, 120 μg/mL of P. aeruginosa with 20 μM of test drug, or EM (1:1 Dilution). Each 96 well plate had one LPS positive control (n=16), 4 different test drugs with P. aeruginosa LPS (n=16 per drug), and one negative control (n=16). Once the plates were dosed, they were covered with parafilm and placed into an incubator at 28.5° C. The plates were removed at 6- and 24-hours post exposure to be scored for tail edema and mortality. All 644 drugs evaluated for rescue from mortality and tail edema induced by P. aeruginosa LPS exposure as compared to LPS-treated controls after 24 hours of exposure.
3-dpf embryos were challenged with 60 μg/mL P. aeruginosa LPS in combination with single 10 μM concentration of each compound for 24 hours (n=16 fish per compound). […] Other 29 compounds exceeded 60% rescue of tail edema and mortality at 24 hours post exposure.

[2] = tested on: 5-dpf zebrafish larvae challenged with P. aeruginosa LPS 60 μg/mL; settings: compound 10 μM; for 5 dpf Embryos Percent Rescue (Mort + Tail Edema): 5-dpf larvae
Description: Confirmatory testing followed the same methods as the initial testing but used 5-dpf larvae instead of the 3-dpf larvae that were used for the initial screening because they were easier to handle and replicated the methods of Philip et al. (2017).
Next, follow-on 5-dpf screening was implemented to confirm initial screening with more larvae. Zebrafish swim faster at 5-dpf (requiring more time to load 96 plates), and all major organ systems are functioning at 5-dpf and thus determined as advantageous for follow-on confirmation.

[3] = tested on: larval zebrafish exposed to Pseudomonas aeruginosa 60 μg/mL lipopolysaccharide (LPS); experiment: Zebrafish endotoxicity/sepsis model drug screening, statements without larval stage; settings: for rescue from mortality / rescue from vascular damage (tail edema): zebrafish endotoxemia model
Description: To identify potential sepsis drug candidates, an optimized larval zebrafish model of endotoxicity/sepsis was used to screen commercial libraries of U.S. Food and Drug Administration (FDA)-approved drugs and other active pharmaceutical ingredients (API) known to affect pathways implicated in the initiation and progression of sepsis in humans (i.e., inflammation, mitochondrial dysfunction, coagulation, and apoptosis). In this model, endotoxicity was induced in 3- and 5-day post fertilization larval zebrafish (characterized by mortality and tail fin edema (vascular leakage)) by immersion exposure to Pseudomonas aeruginosa 60 μg/mL lipopolysaccharide (LPS) for 24 hours, then screened for the rescue potential of 644 selected drugs simultaneously with LPS at 10 μM. After LPS exposure, a neurobehavioral assay (light-dark test) was performed to further evaluate rescue from endotoxicity and to determine possible off-target drug side effects.

[4] = tested on: zebrafish (4 dpf pre-treated, LPS exposure at 5-dpf) challenged with P. aeruginosa LPS 60 μg/mL; settings: number of n = 16 fish; for 24 hour Tail Edema, No-Drug Pretreatment: 10 μM drug with LPS 60 μg/mL; for 24 hour Tail Edema, No-Drug Pretreatment / 24 Hour Mortality and Tail Edema, No-Drug Pretreatment / 24 Hour Mortality, No Drug Pretreatment: no 24-hour pre-treatment; for 24 Hour Mortality and Tail Edema, Drug Pretreatment / 24 Hour Mortality, Drug Pretreatment: 24-hour 10 μM drug pre-treatment; for 24 hour Tail Edema, Drug Pretreatment: 24-hour 10 μM drug pre-treatment before LPS 60 μg/mL
Description: Drugs identified with >80% rescue were subjected to additional testing. Drug pretreatment for 24 hours prior to LPS challenge was evaluated to determine if any prophylactic benefit could be realized with any of the top rescue drugs. The intent was to determine if drug pre-treatment might be used at the point of injury as a preventative therapeutic before the onset of infection and development of sepsis. Parallel groups of fish received a 24-hour drug pre-treatment or no drug pre-treatment prior to LPS challenge. For this test, 4 dpf PTU-treated zebrafish embryos were placed into 96 well plates containing 100 μL of EM. […] All plates were covered with parafilm and placed into an incubator at 28.5° C. for 24 hours. […] Once the plates were dosed, they were covered with parafilm and placed into an incubator at 28.5° C. The plates were removed at 6- and 24-hours post exposure and scored for tail edema and mortality. Once the 24-hour tail edema and mortality endpoints were collected, a neurobehavioral test was conducted as described in section 2.8.

[5] = tested on: zebrafish exposed to P. aeruginosa LPS; experiment: Model compound testing in the optimized zebrafish sepsis model (varying LPS dose ranges); settings: for complete rescue of exposed fish: 60 μg/mL LPS challenge concentration
Description: Three sources of LPS were evaluated: E. coli 0111:B4, P. aeruginosa Sigma L9143, and K. pneumoniae. E. coli 0111:B4 LPS was selected as the reference LPS used by Philip et al. (2017). P. aeruginosa LPS is commonly associated with infections in hospitals, accounting for an estimated 32,600 cases and resulting in an estimated 2,700 deaths in 2017 (CDC Report 2019). P. aeruginosa infections are also a common cause of sepsis in both patients with severe burns and immunocompromised patients. K. pneumoniae LPS has military relevance related to battlefield injury infections (Kiley et al., 2021). Initial range finding LC50 tests with larval zebrafish were conducted for each LPS strain at both 3-dpf and 5-dpf. […] (E. coli 0111:B4 was also tested at higher concentrations, 400, 800, and 1000 μg/mL due a lack of toxicity within the initial dose range.) Well plates were then covered with parafilm and placed into an incubator at 28.5° C. for 24 hours. After 6 and 24 hours, the plates were removed and scored for mortality, tail edema, and ROS production. The tail edema endpoint evaluates vascular leakage from caudal fin in response to LPS exposure (FIG. 2). ROS production was determined as described by Philip et al. (2017) by adding 2,7-dichloroflurescein diacetate (100 μM) to the wells containing the zebrafish larvae and incubating them in a 100% dark photoperiod incubator at 28.5° C. for one hour. Florescent images of the incubated zebrafish were then captured with a Keyence BZ-X710 fluorescent microscope using 10× objective with a GFP filter and fixed 1/15 second exposure for all imaging. […] Results from the LPS toxicity testing and endpoint screening were used to develop the optimized testing procedure through evaluation in selected model compounds, as described in the next section and in the results.
The optimized zebrafish sepsis model was evaluated against compounds previously shown to have efficacy in previous zebrafish sepsis models: fasudil, hydrocortisone, dexamethasone, and fisetin. Fasudil, an anti-vascular leakage compound (inhibitor of the RhoA/Rho-kinase pathway) was shown by Philip et al. (2017) to rescue zebrafish from LPS-induced mortality, ROS production, and tail fin edema. Fasudil also rescued LPS-induced vascular leakage in murine models of experimental sepsis (Li et al., 2010) and reduced acute lung injury in septic rats through inhibition of the Rho/ROCK signaling pathway (Wang et al., 2018). […] Endpoints evaluated with model compounds included mortality, tail edema, and ROS at 6- and 24-hours post exposure to varying dose ranges of LPS.
LC50s for the LPS tests were determined using the Trimmed Spearmen-Karber method (Hamilton et al., 1977). The tail edema and mortality data from the initial and confirmatory drug testing was analyzed using GraphPad Prism 9 using Fisher's Exact Test. Each drug treatment group was compared pairwise with the on-board positive control group on each test plate. Statistical significance was determined with values of p≤0.05. Neurological behavioral testing data was analyzed by Ethovision software that produced an activity analysis profile per frame for each well of the 96 well plates. Any dead embryos were removed from the data set, and the remaining data set was imported into Excel. […] The behavioral data was then statistically analyzed by drug per phase using a 2 tailed t-test to determine statistical significance p≤0.01.

Compound	3 dpf Embryos Percent Rescue (Mort + Tail Edema) [1]	5 dpf Embryos Percent Rescue (Mort + Tail Edema) [2]	rescue from mortality [3]	rescue from vascular damage (tail edema) [3]	Percent Rescue (Mort + Tail Edema) [1]	rescue of tail edema and mortality (sepsis rescue rate) at 3-dpf [1]	rescue of tail edema and mortality (sepsis rescue rate) at 5-dpf [2]	24 hour Tail Edema, No-Drug Pretreatment [4]	24 Hour Mortality and Tail Edema, Drug Pretreatment [4]	24 Hour Mortality, Drug Pretreatment [4]	24 hour Tail Edema, Drug Pretreatment [4]	24 Hour Mortality and Tail Edema, No-Drug Pretreatment [4]	24 Hour Mortality, No Drug Pretreatment [4]	rescue of tail edema and mortality (sepsis rescue rate) at 5-dpf ([2]; listed as ketanserin tartrate)	complete rescue of exposed fish [5]	mortality at 24 hours post exposure ([5]; 24 hours post LPS exposure)	efficacy in the zebrafish endotoxicity sepsis model ([3]; in vivo)	fish with tail edemas ([3]; 6 hours post exposure)	fish with tail edema ([3]; 24 hours)
O=C(O)c1cn(C2CC2)c2cc(N3CCNCC3)c(F)cc2c1=O [Compound 34, Ciprofloxacin (hydrochloride monohydrate)]	13%	6%	provided rescue from mortality	did not elicit rescue from vascular damage															
Cc1ccc(Sc2ccccc2N2CCNCC2)c(C)c1 [Compound 376, Vortioxetine]	63%	88%			63%	63%	88%	0 fish	16 fish	16 fish	0 fish	16 fish	16 fish						
CCCCCCCCCCCCCCCC(=O)OC1CCCn2c1nc(C)c(CCN1CCC(c3noc4cc(F)ccc34)CC1)c2=O (centres unmarked) [Compound 429, Paliperidone palmitate]	94%	100%			94%	94%	100%	3 fish	12 fish	10 fish	2 fish	9 fish	6 fish						
Clc1ccc(CCCOCCCN2CCCCC2)cc1 [Compound 435, Pitolisant]	94%	88%			94%	94%	88%	2 fish	16 fish	16 fish	0 fish	15 fish	13 fish						
O=C(c1ccc(F)cc1)C1CCN(CCn2c(=O)[nH]c3ccccc3c2=O)CC1 [Compound 437, Ketanserin (tartrate)]	100%	100%			100%	100%	100%	0 fish	0 fish	0 fish	0 fish	0 fish	0 fish	100%					
O=S(=O)(c1cccc2cnccc12)N1CCCNCC1 [Fasudil]															Neither compound showed complete rescue	statistically significant (p=0.0233) reduction in mortality			
O=c1c(O)c(-c2ccc(O)c(O)c2)oc2cc(O)ccc12 [Fisetin]															Neither compound showed complete rescue				
CN1C2CCCC1CC(NC(=O)c1nn(C)c3ccccc13)C2 (centres unmarked) [Granisetron]			significant reduction in mortality	did not rescue from vascular damage (tail edema)															
Cc1nccn1CC1CCc2c(c3ccccc3n2C)C1=O (centres unmarked) [Ondansetron]																	not efficacious		
Ferric citrate [Compound 340]	94%	81%			94%	94%	81%	2 fish	15 fish	15 fish	0 fish	15 fish	13 fish					9 of 16 fish	1 of 16

Source: patent US20250085273A1, “NOVEL RAPID DRUG DISCOVERY FOR SEPSIS AND AGENTS FOR USE AS SEPSIS THERAPY” (priority 2023, published 2025)
